Experiment [1] concerns Tyrosine-protein kinase ABL1 (Homo sapiens), P00519 [Y253F]. The experiment can be described thus: Inhibition of recombinant human Abl Y253F mutant (27 to end residues) at 1 uM using EAIYAAPFAKKK as substrate after 40 mins in presence of [gamma-33P]ATP by scintillation counting method.
For experiment [2], the target named is Tyrosine-protein kinase receptor UFO (Homo sapiens) (UniProt P30530). The experiment can be described thus: Inhibition of recombinant human Axl (473 to end residues) at 1 uM using KKSRGDYMTMQIG as substrate after 40 mins in presence of [gamma-33P]ATP by scintillation counting method.
Sequence of Tyrosine-protein kinase receptor UFO (Homo sapiens) (P30530 whole entry): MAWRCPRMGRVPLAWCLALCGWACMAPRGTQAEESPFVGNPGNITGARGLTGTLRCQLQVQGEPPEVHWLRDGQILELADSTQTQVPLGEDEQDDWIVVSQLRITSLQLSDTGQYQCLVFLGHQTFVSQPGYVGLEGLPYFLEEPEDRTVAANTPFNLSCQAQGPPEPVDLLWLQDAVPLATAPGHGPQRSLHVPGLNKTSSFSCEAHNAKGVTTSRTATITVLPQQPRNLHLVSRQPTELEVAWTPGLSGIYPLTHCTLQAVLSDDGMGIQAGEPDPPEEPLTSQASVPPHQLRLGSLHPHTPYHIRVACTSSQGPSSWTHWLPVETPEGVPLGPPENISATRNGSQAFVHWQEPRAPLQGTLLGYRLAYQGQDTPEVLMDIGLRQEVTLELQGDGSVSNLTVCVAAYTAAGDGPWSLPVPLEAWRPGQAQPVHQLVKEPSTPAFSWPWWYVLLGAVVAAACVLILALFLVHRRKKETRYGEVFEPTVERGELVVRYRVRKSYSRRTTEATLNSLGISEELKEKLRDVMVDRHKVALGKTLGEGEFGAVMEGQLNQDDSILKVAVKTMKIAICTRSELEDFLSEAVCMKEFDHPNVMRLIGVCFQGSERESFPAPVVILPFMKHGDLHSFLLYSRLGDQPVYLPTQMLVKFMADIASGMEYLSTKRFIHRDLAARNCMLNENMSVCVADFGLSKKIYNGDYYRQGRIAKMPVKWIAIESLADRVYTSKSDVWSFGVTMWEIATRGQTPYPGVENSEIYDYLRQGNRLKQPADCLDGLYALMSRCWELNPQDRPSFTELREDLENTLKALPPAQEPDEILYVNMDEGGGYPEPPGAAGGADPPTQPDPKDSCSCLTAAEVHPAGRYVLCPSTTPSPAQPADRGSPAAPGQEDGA
The target of experiment [3] is Cytoplasmic tyrosine-protein kinase BMX (Homo sapiens) (UniProt P51813). The experiment can be described thus: Inhibition of recombinant full-length human BMX at 1 uM using poly(Glu,Tyr) 4:1 as substrate after 40 mins in presence of [gamma-33P]ATP by scintillation counting method.
In experiment [4] the target is Calcium/calmodulin-dependent protein kinase type II subunit delta (Homo sapiens) (UniProt Q13557). Description: Inhibition of recombinant full-length human CAMK2delta at 1 uM using […] after 40 mins in presence of [gamma-33P]ATP by scintillation counting method.
Experiment [5] concerns the target Serine/threonine-protein kinase Chk2 (Homo sapiens) (UniProt O96017). Description: Inhibition of recombinant human CHK2 (5 to end residues) at 1 uM using KKKVSRSGLYRSPSMPENLNRPR as substrate after 40 mins in presence of [gamma-33P]ATP by scintillation counting method.
Experiment [6] addresses Serine/threonine-protein kinase 35 (Homo sapiens) (UniProt Q8TDR2). The experiment can be described thus: Inhibition of recombinant full-length human CLIK1 at 1 uM using RSRSRSRSRSRSRSR as substrate after 40 mins in presence of [gamma-33P]ATP by scintillation counting method.
Experiment [7] addresses Epidermal growth factor receptor (Homo sapiens) (UniProt P00533). The experiment can be described thus: Inhibition of recombinant human EGFR (696 to end residues) at 1 uM using poly(Glu,Tyr) 4:1 as substrate after 40 mins in presence of [gamma-33P]ATP by scintillation counting method.
The target of experiment [8] is Ephrin type-A receptor 8 (Homo sapiens) (UniProt P29322). Description: Inhibition of recombinant human EPHA8 (615 to 911 residues) at 1 uM using KTFCGTPEYLAPEVRREPRILSEEEQEMFRDFDYIADWC as substrate after 40 mins in presence of [gamma-33P]ATP by scintillation counting method.
The target of experiment [9] is Fibroblast growth factor receptor 1 (Homo sapiens) (UniProt P11362). The experiment can be described thus: Inhibition of recombinant human FGFR1 (456 to 765 residues) at 1 uM using KKKSPGEYVNIEFG as substrate after 40 mins in presence of [gamma-33P]ATP by scintillation counting method.
Sequence of Fibroblast growth factor receptor 1 (Homo sapiens) (P11362 22-822 limits assumed): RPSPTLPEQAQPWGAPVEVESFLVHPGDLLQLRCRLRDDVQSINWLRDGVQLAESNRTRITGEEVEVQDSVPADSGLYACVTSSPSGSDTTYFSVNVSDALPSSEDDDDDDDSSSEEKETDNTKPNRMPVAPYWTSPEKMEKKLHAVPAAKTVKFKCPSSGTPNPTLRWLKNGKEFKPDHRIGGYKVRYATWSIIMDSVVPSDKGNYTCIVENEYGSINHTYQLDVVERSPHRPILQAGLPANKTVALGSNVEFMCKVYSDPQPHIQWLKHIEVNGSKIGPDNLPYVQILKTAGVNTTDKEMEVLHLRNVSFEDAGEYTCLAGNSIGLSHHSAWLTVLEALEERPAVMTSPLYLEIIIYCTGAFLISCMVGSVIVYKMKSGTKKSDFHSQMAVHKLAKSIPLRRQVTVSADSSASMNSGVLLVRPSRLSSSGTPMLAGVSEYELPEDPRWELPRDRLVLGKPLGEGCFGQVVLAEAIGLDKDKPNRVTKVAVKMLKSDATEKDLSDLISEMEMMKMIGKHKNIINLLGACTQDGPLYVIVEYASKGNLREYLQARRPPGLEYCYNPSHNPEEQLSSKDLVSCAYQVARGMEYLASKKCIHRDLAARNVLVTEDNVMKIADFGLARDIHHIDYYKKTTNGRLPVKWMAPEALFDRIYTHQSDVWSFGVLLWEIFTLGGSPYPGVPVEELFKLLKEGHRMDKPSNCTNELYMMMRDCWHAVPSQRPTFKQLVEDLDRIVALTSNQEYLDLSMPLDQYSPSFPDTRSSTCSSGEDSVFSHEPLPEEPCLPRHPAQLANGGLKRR
In experiment [10] the target is Mitogen-activated protein kinase 8 (Homo sapiens) (UniProt P45983). The experiment can be described thus: Inhibition of recombinant full-length human JNK1alpha1 at 1 uM using ATF2 as substrate after 40 mins in presence of [gamma-33P]ATP by scintillation counting method.
The target in experiment [11] is Leucine-rich repeat serine/threonine-protein kinase 2 (Homo sapiens) (UniProt Q5S007). Description: Inhibition of recombinant human LRRK2 (970 to end residues) at 1 uM using RLGRDKYKTLRQIRQ as substrate after 40 mins in presence of [gamma-33P]ATP by scintillation counting method.
The target in experiment [12] is Leukocyte tyrosine kinase receptor (Homo sapiens) (UniProt P29376). The experiment can be described thus: Inhibition of recombinant human LTK (450 to end residues) at 1 uM using GEEPLYWSFPAKKK as substrate after 40 mins in presence of [gamma-33P]ATP by scintillation counting method.
The target in experiment [13] is Serine/threonine-protein kinase MAK (Homo sapiens) (UniProt P20794). Description: Inhibition of recombinant full-length human MAK at 1 uM using RRRFRPASPLRGPPK as substrate after 120 mins in presence of [gamma-33P]ATP by scintillation counting method.
Experiment [14] concerns Hepatocyte growth factor receptor (Homo sapiens), P08581 [Y1248C]. The experiment can be described thus: Inhibition of recombinant human Met Y1248C mutant (974 to end residues) at 1 uM using KKKGQEEEYVFIE as substrate after 40 mins in presence of [gamma-33P]ATP by scintillation counting method.
Experiment [15] concerns the target Mitogen-activated protein kinase kinase kinase 10 (Homo sapiens) (UniProt Q02779). The experiment can be described thus: Inhibition of recombinant human MLK2 (1 to 449 residues) at 1 uM using myelin basic protein as substrate after 40 mins in presence of [gamma-33P]ATP by scintillation counting method.
Experiment [16] has as its target Muscle, skeletal receptor tyrosine-protein kinase (Homo sapiens) (UniProt O15146). Description: Inhibition of recombinant human MUSK (530 to end residues) at 1 uM using myelin basic protein as substrate after 40 mins in presence of [gamma-33P]ATP by scintillation counting method.
The target of experiment [17] is Myosin light chain kinase 2, skeletal/cardiac muscle (Homo sapiens) (UniProt Q9H1R3). The experiment can be described thus: Inhibition of full-length recombinant human MYLK2 at 1 uM using KKLNRTLSFAEPG as substrate after 40 mins in presence of [gamma-33P]ATP by scintillation counting method.
Sequence of Myosin light chain kinase 2, skeletal/cardiac muscle (Homo sapiens) (Q9H1R3 whole entry): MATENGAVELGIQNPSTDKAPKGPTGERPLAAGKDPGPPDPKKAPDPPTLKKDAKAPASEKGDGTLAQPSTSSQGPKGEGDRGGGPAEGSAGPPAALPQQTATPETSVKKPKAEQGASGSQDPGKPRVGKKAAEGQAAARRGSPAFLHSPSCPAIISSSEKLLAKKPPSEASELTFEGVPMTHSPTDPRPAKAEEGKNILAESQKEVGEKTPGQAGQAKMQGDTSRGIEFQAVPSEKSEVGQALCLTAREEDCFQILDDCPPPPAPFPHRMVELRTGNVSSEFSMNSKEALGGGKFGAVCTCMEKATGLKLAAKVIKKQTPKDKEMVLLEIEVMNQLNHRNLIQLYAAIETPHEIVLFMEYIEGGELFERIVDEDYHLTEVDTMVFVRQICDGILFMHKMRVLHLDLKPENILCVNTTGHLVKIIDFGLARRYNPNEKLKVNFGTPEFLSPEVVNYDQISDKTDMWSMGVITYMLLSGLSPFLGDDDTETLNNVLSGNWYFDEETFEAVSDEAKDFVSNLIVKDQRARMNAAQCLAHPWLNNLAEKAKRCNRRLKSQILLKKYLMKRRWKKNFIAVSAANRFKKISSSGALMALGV
Experiment [18] addresses Serine/threonine-protein kinase PAK 1 (Homo sapiens) (UniProt Q13153). Description: Inhibition of recombinant human PAK1 (150 to end residues) at 1 uM using RRRLSFAEPG as substrate after 40 mins in presence of [gamma-33P]ATP by scintillation counting method.
Experiment [19] concerns the target cAMP-dependent protein kinase catalytic subunit PRKX (Homo sapiens) (UniProt P51817). The experiment can be described thus: Inhibition of recombinant full-length human PRKX at 1 uM using RRRLSFAEPG as substrate after 40 mins in presence of [gamma-33P]ATP by scintillation counting method.
Experiment [20] has as its target Proto-oncogene tyrosine-protein kinase receptor Ret (Homo sapiens) (UniProt P07949). Description: Inhibition of recombinant human RET (658 to end residues) at 1 uM using KKKSPGEYVNIEFG as substrate after 40 mins in presence of [gamma-33P]ATP by scintillation counting method.
The target of experiment [21] is Serine/threonine-protein kinase 33 (Homo sapiens) (UniProt Q9BYT3). Description: Inhibition of recombinant full-length human STK33 at 1 uM using myelin basic protein as substrate after 40 mins in presence of [gamma-33P]ATP by scintillation counting method.
Experiment [22] concerns the target Serine/threonine-protein kinase tousled-like 2 (Homo sapiens) (UniProt Q86UE8). The experiment can be described thus: Inhibition of recombinant human TLK2 (387 to end residues) at 1 uM using casein as substrate after 40 mins in presence of [gamma-33P]ATP by scintillation counting method.
Experiment [23] addresses Serine/threonine-protein kinase VRK2 (Homo sapiens) (UniProt Q86Y07). The experiment can be described thus: Inhibition of recombinant human VRK2 (1 to 336 residues) at 1 uM using casein as substrate after 40 mins in presence of [gamma-33P]ATP by scintillation counting method.
The target of experiment [24] is Death-associated protein kinase 3 (Homo sapiens) (UniProt O43293). The experiment can be described thus: Inhibition of recombinant human ZIPK (1 to 290 residues) at 1 uM using KKLNRTLSFAEPG as substrate after 40 mins in presence of [gamma-33P]ATP by scintillation counting method.
Sequence of Death-associated protein kinase 3 (Homo sapiens) (O43293 whole entry, looked up, the tested form may be a part): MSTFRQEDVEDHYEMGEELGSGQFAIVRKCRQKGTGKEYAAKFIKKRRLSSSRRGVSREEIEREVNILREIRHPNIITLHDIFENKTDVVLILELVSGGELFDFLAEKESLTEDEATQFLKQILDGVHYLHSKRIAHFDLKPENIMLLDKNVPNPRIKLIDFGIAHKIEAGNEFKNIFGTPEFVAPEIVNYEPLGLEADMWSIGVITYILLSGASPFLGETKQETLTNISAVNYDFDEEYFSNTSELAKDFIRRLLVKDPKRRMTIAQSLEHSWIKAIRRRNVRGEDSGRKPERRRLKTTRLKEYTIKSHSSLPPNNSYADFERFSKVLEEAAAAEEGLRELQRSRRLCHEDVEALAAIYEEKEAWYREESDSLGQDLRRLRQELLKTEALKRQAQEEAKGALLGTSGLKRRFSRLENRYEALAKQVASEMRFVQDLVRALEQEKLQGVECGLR

Each structure is given as a SMILES string.

Sequence of Serine/threonine-protein kinase VRK2 (Homo sapiens) (Q86Y07 whole entry, the tested form may be a part): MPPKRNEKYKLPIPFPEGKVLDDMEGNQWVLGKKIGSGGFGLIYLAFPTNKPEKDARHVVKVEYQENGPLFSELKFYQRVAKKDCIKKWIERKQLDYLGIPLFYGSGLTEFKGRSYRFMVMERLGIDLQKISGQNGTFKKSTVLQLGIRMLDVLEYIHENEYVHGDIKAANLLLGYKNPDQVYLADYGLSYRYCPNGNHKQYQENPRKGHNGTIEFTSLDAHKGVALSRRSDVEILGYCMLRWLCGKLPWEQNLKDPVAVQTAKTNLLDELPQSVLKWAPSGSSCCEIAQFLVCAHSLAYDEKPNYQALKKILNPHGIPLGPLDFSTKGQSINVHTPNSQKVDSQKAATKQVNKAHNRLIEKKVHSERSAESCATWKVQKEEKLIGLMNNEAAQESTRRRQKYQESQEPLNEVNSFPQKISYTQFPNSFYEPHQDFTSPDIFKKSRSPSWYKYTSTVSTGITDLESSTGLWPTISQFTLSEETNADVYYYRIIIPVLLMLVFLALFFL
Sequence of Serine/threonine-protein kinase 35 (Homo sapiens) (Q8TDR2 whole entry): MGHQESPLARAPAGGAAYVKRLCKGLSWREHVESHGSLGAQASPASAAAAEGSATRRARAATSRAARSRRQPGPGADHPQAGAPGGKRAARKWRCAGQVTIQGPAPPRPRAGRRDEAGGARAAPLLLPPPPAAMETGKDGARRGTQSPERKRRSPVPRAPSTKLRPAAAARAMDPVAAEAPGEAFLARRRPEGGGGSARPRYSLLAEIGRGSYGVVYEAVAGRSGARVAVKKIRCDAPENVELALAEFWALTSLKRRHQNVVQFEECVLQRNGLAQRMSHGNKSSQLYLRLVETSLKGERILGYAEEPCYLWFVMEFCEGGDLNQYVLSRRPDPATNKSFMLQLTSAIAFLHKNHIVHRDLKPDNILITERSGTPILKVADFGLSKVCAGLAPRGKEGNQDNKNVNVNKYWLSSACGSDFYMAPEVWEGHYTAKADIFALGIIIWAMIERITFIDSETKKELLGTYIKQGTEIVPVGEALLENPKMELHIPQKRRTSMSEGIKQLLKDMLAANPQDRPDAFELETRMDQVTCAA
Sequence of Muscle, skeletal receptor tyrosine-protein kinase (Homo sapiens) (O15146 whole entry): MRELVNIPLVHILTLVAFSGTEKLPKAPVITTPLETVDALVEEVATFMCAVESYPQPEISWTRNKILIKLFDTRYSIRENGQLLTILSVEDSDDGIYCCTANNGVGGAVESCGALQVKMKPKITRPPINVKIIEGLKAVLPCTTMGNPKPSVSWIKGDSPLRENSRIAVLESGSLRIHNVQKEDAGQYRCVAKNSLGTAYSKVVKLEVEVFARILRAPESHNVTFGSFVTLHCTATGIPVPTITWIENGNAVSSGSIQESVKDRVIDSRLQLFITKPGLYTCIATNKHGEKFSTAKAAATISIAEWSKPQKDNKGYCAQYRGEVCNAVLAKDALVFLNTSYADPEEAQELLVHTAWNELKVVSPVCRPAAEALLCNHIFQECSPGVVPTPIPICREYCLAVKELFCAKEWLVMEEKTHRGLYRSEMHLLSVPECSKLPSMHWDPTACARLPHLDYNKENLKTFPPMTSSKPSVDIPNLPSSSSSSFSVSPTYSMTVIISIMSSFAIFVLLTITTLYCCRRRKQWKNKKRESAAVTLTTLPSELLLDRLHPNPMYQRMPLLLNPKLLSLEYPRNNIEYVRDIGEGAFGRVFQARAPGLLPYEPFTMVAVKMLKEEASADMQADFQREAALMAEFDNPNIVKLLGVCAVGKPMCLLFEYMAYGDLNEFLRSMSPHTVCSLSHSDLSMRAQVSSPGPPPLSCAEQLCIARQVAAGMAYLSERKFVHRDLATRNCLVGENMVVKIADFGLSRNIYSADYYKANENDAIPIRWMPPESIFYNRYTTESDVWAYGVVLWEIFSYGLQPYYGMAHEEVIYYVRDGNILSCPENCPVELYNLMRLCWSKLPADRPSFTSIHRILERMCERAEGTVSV
Sequence of cAMP-dependent protein kinase catalytic subunit PRKX (Homo sapiens) (P51817 whole entry): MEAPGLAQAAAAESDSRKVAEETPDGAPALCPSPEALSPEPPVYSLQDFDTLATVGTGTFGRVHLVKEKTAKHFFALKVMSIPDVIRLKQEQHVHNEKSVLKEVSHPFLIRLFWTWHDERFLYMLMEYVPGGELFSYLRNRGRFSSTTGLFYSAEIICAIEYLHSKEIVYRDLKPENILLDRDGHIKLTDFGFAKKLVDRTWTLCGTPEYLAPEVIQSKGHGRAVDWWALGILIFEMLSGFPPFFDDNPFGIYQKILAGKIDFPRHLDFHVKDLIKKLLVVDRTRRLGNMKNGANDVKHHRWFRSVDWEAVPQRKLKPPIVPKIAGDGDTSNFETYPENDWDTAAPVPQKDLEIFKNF

`CS(=O)(=O)c1ccc(-n2nc(-c3cnc4[nH]ccc4c3)c3c(N)ncnc32)cc1`: the inhibition in experiment [1] was 85%; in experiment [2] it was 9%; in experiment [3], 47%; in experiment [4], 3%; in experiment [5], -3%; in experiment [6], 3%. Besides, the inhibition in experiment [7] is 3%; in experiment [8], 15%; in experiment [9] it was 63%; in [10], 1%; in experiment [11], 22%; in experiment [12] it was -3%. Moreover, the inhibition in experiment [13] was 2%; in experiment [14], 3%; in experiment [15], -1%; in [16] it was -2%; in experiment [17], 18%; in [18], 4%. Besides, the inhibition in experiment [19] is -4%; in experiment [20], 95%; in [21], 4%; in [22] it was 0%; in [23], 0%; in [24], 0%.

Broadly, the inhibition is the relative decrease from the control value, in per cent.
